Test results as given in US12083182B2, “Controlled-release CNP agonists with increased NEP stability” (ASCENDIS PHARMA GROWTH DISORDERS A/S, priority 2016, dated 2024).

Tests used:
[1] = Evaluation of cardiovascular effects in the conscious telemetered mouse (subcutaneous administration); assay type: in vivo, Crl:CD1(ICR) mice; conditions: 800 μg CNP-38 (eq)/kg sc
Method: Male Crl:CD1(ICR) mice (age range 8-13 weeks and body weight range 27.3-35.6 g at start of dosing) were surgically implanted with a TA11PA-C10 telemetry transmitter (Data Sciences International (DSI)) in the carotid artery. The body of the transmitter was placed subcutaneously in the lateral flank of the mouse. The mice were dosed subcutaneously in a latin square crossover design with at least 72 hours between dosing occasions. […] At least four mice were included at each dose level. Blood pressure (systolic (SAP), diastolic (DAP) and mean (MAP) and heart rate (HR, derived from blood pressure), were recorded using a digital data capture system linked with a DSITM Ponemah data acquisition and analysis system. The capture system allowed recording of the cardiovascular parameters whilst the mice were in individual cages. On the day of each test session the animals were weighed and a predose recording was performed for at least 60 min prior to dosing. Each mouse was returned to the home cage and the cardiovascular parameters were recorded for approximately 48 hours postdose. Blood pressure and HR were reported at the following time points: −30, −20, −10, 5, 15 and 30 min postdose and 1, 2, 6, 12, 18, 24, 30, 36, 42 and 48 hours postdose. Each time point was presented as the average value of five minute's recording prior to the time point. The monitoring period was selected to cover exposure to the test items both prior to and after Tmax.

[2] = Pharmacokinetic profile of CNP-38 after subcutaneous single-dose administration to cynomolgus monkeys; assay type: in vivo; conditions: single s.c. 40 μg/kg
Method: This study was performed in order to test the pharmacokinetics of CNP-38 after subcutaneous (s.c.) administration in cynomolgus monkeys. Three male monkeys (2-4 years old, 3-5 kg) received a single s.c. injection at a dose of 40 μg/kg of CNP-38. Blood samples were collected at 5, 10, 15, 30, 45 min and 1, 2, 4, 8 hours upon dose.
Method: Plasma levels of CNP were analysed using a commercially available competitive radioimmuno-assay (RK-012-03, Phoenix Pharmaceuticals, CA). The assay was applied essentially as described by the manufacturer. The assay is based on competitive binding between 125I-labelled CNP (supplied in the kit) and unlabeled CNP (from study sample or calibrants) to an anti-CNP antibody. […] By measuring the amount of 125I-labelled CNP bound as a function of the concentration of peptide, it is possible to construct a calibration curve from which the concentration of peptide in the sample can be determined.
A few changes to the supplied assay protocol were made. These changes included using in-house CNP calibrant and QC samples to secure consistency between assay runs. […] Due to matrix effects in monkey plasma, the minimal required dilution was set at 1:10, yielding an assay range of 150-1080 μg/mL CNP.

[3] = in vivo; cited from earlier work
[4] = doses up to 15 μg/kg, healthy volunteers; cited from earlier work

Compound | effect on heart rate (HR) ([1]; up to 48 hours postdose) | effect on blood pressure (MAP) ([1]; 5, 15 and 30 min post dose, CNP-38: 3 of 4 animals) | MAP 5 min post dose (mean±SD) ([1]; 5 min post dose) | MAP 15 min post dose (mean±SD) ([1]; 15 min post dose) | MAP 30 min post dose (mean±SD) ([1]; 30 min post dose) | MAP predose (mean±SD) ([1]; predose) | tolerability [2] | half-life [3] | blood pressure effect [4]
CC[C@H](C)[C@@H]1NC(=O)[C@H](CCCNC(=N)N)NC(=O)[C@H](CC(=O)O)NC(=O)[C@H](CC(C)C)NC(=O)[C@H](CCCCN)NC(=O)[C@H](CC(C)C)NC(=O)CNC(=O)[C@H](Cc2ccccc2)NC(=O)[C@@H](NC(=O)CNC(=O)[C@H](CCCCN)NC(=O)[C@H](CO)NC(=O)[C@H](CC(C)C)NC(=O)CNC(=O)[C@H](CCCCN)NC(=O)[C@H](CCCCN)NC(=O)[C@H](CC(N)=O)NC(=O)[C@H](C)NC(=O)CNC(=O)[C@H](CCCCN)NC(=O)[C@H](Cc2ccc(O)cc2)NC(=O)[C@H](CCCCN)NC(=O)[C@H](CCCNC(=N)N)NC(=O)[C@H](C)NC(=O)[C@H](CC(N)=O)NC(=O)[C@@H]2CCCN2C(=O)[C@H](Cc2c[nH]cn2)NC(=O)[C@H](CCC(=O)O)NC(=O)[C@H](CCC(N)=O)NC(=O)[C@@H](N)CC(C)C)CSSC[C@@H](C(=O)O)NC(=O)CNC(=O)[C@H](CC(C)C)NC(=O)CNC(=O)[C@H](CO)NC(=O)[C@H](CCSC)NC(=O)[C@H](CO)NC(=O)CNC1=O [CNP-38] | not impacted | significant decrease in MAP | 102.0 ± 7.5 mmHg | 89.5 ± 29.4 mmHg | 99.5 ± 25.2 mmHg | 106.8 ± 13.4 mmHg | well tolerated |  | 
BMN-111 |  |  |  |  |  |  |  | 20 min | mild hypotension
